Results from ChEMBL document CHEMBL6114960, “Discovery of First-in-Class FXR and HSD17B13 Dual Modulator for the Treatment of Metabolic Dysfunction-Associated Fatty Liver Disease” (J Med Chem, 2025).

Assays:
[1] = biological target: T1, Retinoic acid receptor gamma (Homo sapiens, UniProt P13631); experiment: Agonist activity at RARgamma (unknown origin) transfected in green monkey CV-1 cells co-transfected with NHR responsive luciferase reporter incubated for 18 hrs by luciferase assay; assay type: cell-based
T1 sequence (P13631 whole entry): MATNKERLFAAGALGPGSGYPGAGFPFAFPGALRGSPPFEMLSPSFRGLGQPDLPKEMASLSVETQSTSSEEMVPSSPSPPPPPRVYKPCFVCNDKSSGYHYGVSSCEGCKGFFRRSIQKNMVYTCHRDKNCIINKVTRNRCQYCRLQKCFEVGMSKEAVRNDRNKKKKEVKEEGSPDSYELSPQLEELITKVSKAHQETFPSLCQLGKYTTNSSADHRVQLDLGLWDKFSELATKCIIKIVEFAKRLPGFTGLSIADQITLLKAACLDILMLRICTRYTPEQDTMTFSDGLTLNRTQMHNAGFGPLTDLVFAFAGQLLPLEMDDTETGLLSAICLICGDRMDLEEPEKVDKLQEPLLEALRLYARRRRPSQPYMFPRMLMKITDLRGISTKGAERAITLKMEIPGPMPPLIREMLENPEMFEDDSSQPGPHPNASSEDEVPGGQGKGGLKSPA

Androgen receptor = biological target: T2, Androgen receptor (Homo sapiens, UniProt P10275); experiment: Agonist activity at androgen receptor (unknown origin) transfected in green monkey CV-1 cells co-transfected with NHR responsive luciferase reporter incubated for 18 hrs by luciferase assay; assay type: cell-based
T2 sequence (P10275 whole entry): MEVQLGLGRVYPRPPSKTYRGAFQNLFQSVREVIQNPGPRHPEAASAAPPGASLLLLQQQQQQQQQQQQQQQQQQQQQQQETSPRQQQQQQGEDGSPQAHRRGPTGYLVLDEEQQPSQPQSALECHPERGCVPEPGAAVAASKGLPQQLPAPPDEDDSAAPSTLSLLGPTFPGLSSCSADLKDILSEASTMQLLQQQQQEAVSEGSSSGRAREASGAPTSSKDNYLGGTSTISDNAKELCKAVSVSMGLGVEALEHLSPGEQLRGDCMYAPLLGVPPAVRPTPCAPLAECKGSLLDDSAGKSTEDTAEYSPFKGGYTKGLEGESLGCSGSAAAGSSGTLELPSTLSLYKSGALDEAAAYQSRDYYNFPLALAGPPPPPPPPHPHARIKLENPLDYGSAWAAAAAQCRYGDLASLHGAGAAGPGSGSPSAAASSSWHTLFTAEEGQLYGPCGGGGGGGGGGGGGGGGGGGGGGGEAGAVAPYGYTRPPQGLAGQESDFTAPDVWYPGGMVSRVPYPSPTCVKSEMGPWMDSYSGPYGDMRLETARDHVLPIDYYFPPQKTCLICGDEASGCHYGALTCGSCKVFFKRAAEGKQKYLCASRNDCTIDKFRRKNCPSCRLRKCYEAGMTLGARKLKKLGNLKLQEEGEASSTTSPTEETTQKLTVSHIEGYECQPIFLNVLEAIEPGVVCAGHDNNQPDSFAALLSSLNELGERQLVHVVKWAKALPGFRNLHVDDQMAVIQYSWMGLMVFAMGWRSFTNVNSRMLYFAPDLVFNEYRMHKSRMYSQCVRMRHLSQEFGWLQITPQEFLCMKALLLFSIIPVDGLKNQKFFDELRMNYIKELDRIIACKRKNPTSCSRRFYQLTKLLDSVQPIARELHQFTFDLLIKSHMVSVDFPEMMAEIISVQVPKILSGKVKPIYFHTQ

[2] = biological target: T3, Mineralocorticoid receptor (Homo sapiens, UniProt P08235); experiment: Agonist activity at mineralocorticoid receptor (unknown origin) transfected in green monkey CV-1 cells co-transfected with NHR responsive luciferase reporter incubated for 18 hrs by luciferase assay; assay type: cell-based
T3 sequence (P08235 whole entry): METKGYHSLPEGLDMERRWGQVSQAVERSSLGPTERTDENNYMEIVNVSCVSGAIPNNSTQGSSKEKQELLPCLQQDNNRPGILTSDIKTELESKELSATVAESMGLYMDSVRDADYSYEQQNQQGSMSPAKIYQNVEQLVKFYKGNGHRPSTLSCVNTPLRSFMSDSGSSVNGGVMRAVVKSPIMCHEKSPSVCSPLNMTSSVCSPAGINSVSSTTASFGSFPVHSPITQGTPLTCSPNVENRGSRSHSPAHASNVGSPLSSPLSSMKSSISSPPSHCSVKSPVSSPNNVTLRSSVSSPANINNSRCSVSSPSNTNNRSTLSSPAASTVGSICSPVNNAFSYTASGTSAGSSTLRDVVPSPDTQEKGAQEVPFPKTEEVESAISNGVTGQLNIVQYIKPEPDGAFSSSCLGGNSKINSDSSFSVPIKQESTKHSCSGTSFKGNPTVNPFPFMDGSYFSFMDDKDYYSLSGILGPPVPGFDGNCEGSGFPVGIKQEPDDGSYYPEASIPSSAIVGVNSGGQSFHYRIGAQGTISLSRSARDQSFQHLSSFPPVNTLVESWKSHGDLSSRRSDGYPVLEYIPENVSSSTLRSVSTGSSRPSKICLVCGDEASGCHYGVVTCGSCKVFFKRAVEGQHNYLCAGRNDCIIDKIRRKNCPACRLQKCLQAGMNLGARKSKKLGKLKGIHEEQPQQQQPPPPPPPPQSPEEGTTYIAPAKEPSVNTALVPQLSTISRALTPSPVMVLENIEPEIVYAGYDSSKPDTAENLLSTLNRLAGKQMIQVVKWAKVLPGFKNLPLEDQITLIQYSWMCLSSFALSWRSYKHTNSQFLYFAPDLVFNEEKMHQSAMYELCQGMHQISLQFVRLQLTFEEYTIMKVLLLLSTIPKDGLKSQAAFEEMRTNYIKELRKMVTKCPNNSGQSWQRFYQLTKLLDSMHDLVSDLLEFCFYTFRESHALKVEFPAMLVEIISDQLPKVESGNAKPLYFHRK

[3] = biological target: T4, G-protein coupled bile acid receptor 1 (Homo sapiens, UniProt Q8TDU6); experiment: Agonist activity at TGR5 in human NCI-H716 cells assessed as increase in intracellular cAMP level preincubated with compound for 60 mins followed by IBMX addition and measured after 24 hrs by HTR-FRET assay; assay type: functional, cell-based
T4 sequence (Q8TDU6 whole entry): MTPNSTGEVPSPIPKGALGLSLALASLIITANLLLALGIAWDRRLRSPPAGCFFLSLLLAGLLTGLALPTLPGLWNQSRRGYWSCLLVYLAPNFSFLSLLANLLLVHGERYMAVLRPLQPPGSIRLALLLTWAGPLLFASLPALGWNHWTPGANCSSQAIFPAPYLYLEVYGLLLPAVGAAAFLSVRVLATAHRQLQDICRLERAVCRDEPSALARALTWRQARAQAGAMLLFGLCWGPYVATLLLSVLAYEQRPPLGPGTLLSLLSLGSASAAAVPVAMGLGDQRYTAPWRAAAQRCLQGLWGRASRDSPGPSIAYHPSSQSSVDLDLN

Measured: EC50

O=C(O)c1ccc(-c2ccc(OCc3c(-c4c(Cl)cccc4Cl)noc3C3CC3)cc2)cc1
> 10 µM: [1] | Androgen receptor | [2] | [3]
